The structures appear in SMILES notation. Where a name gives a salt, the structure may show the parent alone.

In turn, `COc1cc(C2=CCCCC2)c(Cl)cc1C(=O)N1Cc2ccc(C(=O)N(C)Cc3cccnc3)n2Cc2ccccc21` (as salt: tartaric acid salt) (hydrate or solvate) [Example 2, 10-(5-Chloro-4-cyclohex-1-en-1-yl-2-methoxybenzoyl)-N-methyl-N-(pyridin-3-ylmethyl)-10,11-dihydro-5H-pyrrolo[2,1-c][1,4]benzodiazepine-3-carboxamide L-(+)-tartaric acid salt hemihydrate] displayed a melting point of 138 to 177 °C.

As a reminder, the melting point is the temperature, or range, at which the solid turns liquid.

(Values after patent publication US20030055046A1, “Novel pyrido cyclohexenyl phenyl carboxamides tocolytic oxytocin receptor antagonists” (Wyeth, priority 2001, published 2003).)
